Data taken from patent US12472185B2, “Methods for killing antibiotic tolerant bacteria” (THE PENN STATE RESEARCH FOUNDATION, priority 2020, dated 2025).

How the values were obtained:
[1] = test system: P. aeruginosa PA14 exponentially-growing cells; experiment: Killing at one MIC in PBS, NPIMA compared with cisplatin; type: cell-based, Pseudomonas aeruginosa
Description: FIG. 7. NPIMA compared width cisplatin for killing Pseudomonas aeruginosa, Escherichia coli, and Staphylococcus aureus. Survival of exponentially-growing cells of P. aeruginosa PA14 (a), E. coli (b), and S. aureus (c) treated with one MIC of NPIMA (♦) and cisplatin (●) for 3 hr in PBS. DMSO (▴) and NaClO4 (*) were used as a negative controls. MIC, minimum inhibitory concentration; NPIMA, 5-nitro-3-phenyl-1H-indol-2-yl-methylamine hydrochloride.
For bacterial viability, cells were washed twice with 0.85% NaCl, resuspended in 1×PBS, and cell counts were determined via the drop assay (Donegan, Matyac, Seidler, & Porteous, 1991). For human cell viability, pre-cultured human cancer HT-29 cells were dispensed in 98 μl in 96-well plates with approximately 5,000 cells/well. NPIMA was added (2 μl) to produce concentrations of 5, 10, 100, and 200 μM. For controls, Triton X-100 (positive control) and DMSO (negative solvent control), were used, and the medium was used for background. Plates were incubated in a humidified incubator (37° C., 5% CO2) for 24 hr. Cell viability was determined via a cell counting kit (CCK-8 Kit, ab228554; Abcam), and cytotoxicity was determined via the lactate dehydrogenase (LDH) assay (LDH Assay Kit, MK401; Takara).

E. coli K-12 BW25113 = settings: from Chowdhury, Wood, et al., 2016; cited from earlier work
S. aureus ATCC29213 = settings: from Chowdhury, Wood, et al., 2016; cited from earlier work
P. aeruginosa PA14 = settings: from Chowdhury, Wood, et al., 2016; cited from earlier work

## N.N.[Cl][Pt][Cl] [cisplatin]
[1]
  time to eradicate P. aeruginosa cells: 1 h
E. coli K-12 BW25113
  MIC: 300 µM
S. aureus ATCC29213
  MIC: 1000 µM
P. aeruginosa PA14
  MIC: 150 µM
